Experimental findings from article PMC10278368 (The Pediatric infectious disease journal, 2011) are described below.

Converted amounts (≈) assume the structure as drawn. Where a name gives a salt, the structure may show the parent alone. Read-outs that look alike come from different tables or passages of the source. Bridge positions count the residues as written; N and C are the ends. Square brackets hold non-standard residues; d marks the D form. Peptide text beside a SMILES is read from it. * marks the point of attachment. X1 = CC[C@H](C)CCCCC(=O)*; Dab = NCC[C@H](N)C(=O)O

Data set [1] is classed as in vivo, human.
In data set [2] the test system is multidrug resistant Klebsiella pneumoniae. The data set can be described thus: microbe, parasite or virus in culture.
Data set [3] shares this test system. In kind it is in vivo, human. The note with it: 1.5 mg/kg/dose every 12 hours IV in combination with amikacin once daily; persistently febrile; infant, n = 1.
For data set [4] the test system is unchanged. The note with it: blood culture isolate of the patient; for MIC: method not stated.
Data set [5] has as its system Acinetobacter baumannii. The data set is described as follows: MIC of the endotracheal aspirate isolate. The note with it: isolate from endotracheal aspirate of the patient; reported as susceptible. Format: cell-based.

Take `CC[C@H](C)CCCCC(=O)N[C@@H](CCN)C(=O)N[C@H](C(=O)N[C@@H](CCN)C(=O)N[C@H]1CCNC(=O)[C@H]([C@@H](C)O)NC(=O)[C@H](CCN)NC(=O)[C@H](CCN)NC(=O)[C@H]([C@@H](C)CC)NC(=O)[C@@H](Cc2ccccc2)NC(=O)[C@H](CCN)NC1=O)[C@@H](C)O` [Isoleucine Polymyxin B1] (X1-[Dab]T[Dab][Dab][Dab][dF]I[Dab][Dab]T; lactam 4-C): the clearance (in general, a measure of how efficiently the substance is removed, as volume per time) in data set [1] (human, in vivo, iv) is 4.02 mL/min. As to `CC[C@H](C)CCCCC(=O)N[C@@H](CCN)C(=O)N[C@H](C(=O)N[C@@H](CCN)C(=O)N[C@H]1CCNC(=O)[C@H]([C@@H](C)O)NC(=O)[C@H](CCN)NC(=O)[C@H](CCN)NC(=O)[C@H](CC(C)C)NC(=O)[C@@H](Cc2ccccc2)NC(=O)[C@H](CCN)NC1=O)[C@@H](C)O` [Polymyxin B1] (X1-[Dab]T[Dab][Dab][Dab][dF]L[Dab][Dab]T; lactam 4-C), in data set [1] (human, in vivo, iv), the clearance is 5.07 mL/min and the half-life (usually how long it takes for the measured level to halve) is 3.07 h. Further, the “elimination half-life (rounded)” value in data set [1] (infant, n = 1, IV polymyxin B, steady-state serum, LC-MS) was 3.1 h.

On to `NCC[C@H](O)C(=O)N[C@@H]1C[C@H](N)[C@@H](O[C@H]2O[C@H](CN)[C@@H](O)[C@H](O)[C@H]2O)[C@H](O)[C@H]1O[C@H]1O[C@H](CO)[C@@H](O)[C@H](N)[C@H]1O` [amikacin], for which the MIC in data set [2] was below 2 µg/mL. Take `C[C@H]1[C@H](NC(=O)/C(=N\OC(C)(C)C(=O)O)c2csc(N)n2)C(=O)N1S(=O)(=O)O` [aztreonam]: in data set [2], the MIC is above 64 µg/mL.

In turn, `CC(C)(O/N=C(\C(=O)N[C@@H]1C(=O)N2C(C(=O)[O-])=C(C[n+]3ccccc3)CS[C@H]12)c1csc(N)n1)C(=O)O` [ceftazidime] gave an MIC in data set [2] of 16 µg/mL (≈ 29.3 µM).

In data set [2], `CO/N=C(\C(=O)N[C@@H]1C(=O)N2C(C(=O)O)=C(CSc3nc(=O)c(=O)[nH]n3C)CS[C@H]12)c1csc(N)n1` [ceftriaxone] yielded an MIC of 16 µg/mL (≈ 28.9 µM).

For the molecule `C[C@@H](O)[C@H]1C(=O)N2C(C(=O)O)=C(S[C@@H]3CN[C@H](C(=O)N(C)C)C3)[C@H](C)[C@H]12` [meropenem], the MIC in data set [2] (read-out: MIC by E-test) was 32 µg/mL (≈ 83.4 µM). With `CC[C@H](C)CCCCC(=O)N[C@@H](CCN)C(=O)N[C@H](C(=O)N[C@@H](CCN)C(=O)N[C@H]1CCNC(=O)[C@H]([C@@H](C)O)NC(=O)[C@H](CCN)NC(=O)[C@H](CCN)NC(=O)[C@H](CC(C)C)NC(=O)[C@@H](Cc2ccccc2)NC(=O)[C@H](CCN)NC1=O)[C@@H](C)O` [polymyxin B, Polymyxin B sulfate] (X1-[Dab]T[Dab][Dab][Dab][dF]L[Dab][Dab]T; lactam 4-C (inferred); N-terminus assumed), the “days of persistently positive blood cultures under treatment” value in data set [3] was 3 days. Also, the “MIC by E-test” value in data set [4] (E-test) was 1.5 µg/mL. In the case of ampicillin/sulbactam, in data set [4], the MIC was above 32 µg/mL. With piperacillin/tazobactam, the MIC is above 128 µg/mL in data set [4] and below 4 µg/mL in data set [5].
